The source of these data is US4865840A, “Topical compositions containing selenoamino acids for the prevention of ultraviolet radiation-induced skin damage” (priority 1987, dated 1989).

Series [1] relates to selenium dependent glutathione peroxidase. In words: hepatic activity of Se-dependent glutathione peroxidase (SeGSHpx). The format is in vivo, BALBC mice. The conditions noted are these: for liver SeGSHpx: 3 months, mean ± SEM; for SeGSHpx: hepatic, 39 weeks. The text has this:
(§1) To determine the effectiveness of selenium supplementation in the form of topical application and oral administration of L-selenomethionine in providing protection for ultraviolet radiation-induced skin damage, 120 BALB-C female mice and 40 female Skh:2 hairless, pigmented, dark-eyed mice were obtained and separated into treatment groups as follows:
(§2) During the treatment, the BALB-C mice were shaved on the back one per week. 100 λ of a composition according to the invention in the form of an oil-in-water emulsion location containing 0.02% L-selenomethionine was applied three times a week to the backs and ears of the mice for a period of one week prior to beginning irradiation with ultraviolet light. The lotion carrier was formulated from an oil phase containing 21/2% polypropylene glycol-3-myristyl ether, 2% squalane, 0.5% safflower oil, 1% Myrj 52S emulsifier, 0.75% cetyl alcohol, 0.3% SPAN-60, 6.5% Amercol L101, 0.5% Lanocerin, 1% glyceral monostearate, 0.1% preservative, 1% Silicone 200, 1% stearic acid, and 0.5% isostearic acid; and an aqueous phase containing 68.5% distilled water, 0.75% triethanolamine, 5% propylene glycol, 0.3% preservative, 0.1% allantoin, 0.4% Germal II dissolved in 2% water, and 5% of Carbopol 941 (2.5% solution). Each 100 λ application of the composition penetrated the skin within a period of ten minutes. The composition continued to be applied thirty minutes before each thrice weekly irradiation.
(§3) Maintenance exposure times for the BALB-C mice was 50 minutes, while for the Skh:2 mice it was 15 minutes. Irradiation with four Westinghouse FS40 sunlamps was begun at 5 minute exposures, however, and increased by 5 minutes per session for the BALB-C mice and by 2.5 minutes per session for the Skh:2 mice until the respective maintenance exposure level for each type of mouse was reached. The maintenance dose of UV radiation for the BALB-C mice was 0.58 Joules/sq. cm./exposure and for the Skh:2 mice, 0.24 Joules/s. cm./exposure. This irradiation was continued for 28 weeks for the BALB-C mice (about 41 joules/sq. cm. total) and 24 weeks for the Skh:2 mice (about 15 joules/sq. cm. total).
(§4) Since selenium is a co-factor for a free-radical quenching enzyme, glutathione peroxidase, the level of two hepatic free-radical quenching enzymes, selenium dependent glutathione peroxidase and superoxide dismutase were also tested.

The nature of series [2]: selenium levels in skin, plasma/serum and liver after topical application (general statement).
The next series concerns superoxide dismutase. Nature of the series: hepatic activity of superoxide dismutase (SOD). Conditions: 39 weeks, pH 10.2. The format is in vivo, BALBc mice. Here is the method:
as §4
^1 SOD was measured by the inihibition of the spontaneous oxidation o
epinephrine at pH 10.2; 1 EU = 50% inhibition.

The nature of series [3]: absorption into treated human skin. Conditions: topical. It is filed as in vivo. The text has this:
Topical application of selenoamino acid compositions in accordance with the invention provides a different type of protection than that afforded by conventional sunscreens, such as those containing p-amino benzoic acid, because the selenium is actually absorbed into treated human skin within a period of less than fifteen minutes. Thus, unlike a superficial sunscreen, the protective effect of the selenomethionine is not washed off by, e.g., swimming or sweating. Thus, frequent reapplication is not required to maintain protection, as is the case with known sunscreen products.

Series [4] can be described thus: toxicity in selenium treated mice (hepatic enzymes, alkaline phosphatase). The format is in vivo.
On the set-up of series [5]: species or system BALBC mice. The conditions noted are these: mouse, in vivo, po.
Text: as §1
as §2, with “Each 100 λ application of the composition penetrated the skin within a period of ten minutes. The composition continued to be applied thirty minutes before each thrice weekly irradiation.” left out
(§5) Throughout the studies, the weights of the mice and the total feed and water intake were monitored.

The conditions of series [6]: in vivo.
The format of series [7] is in vivo. The conditions noted are these: 100 λ of 0.02% L-selenomethionine oil-in-water lotion, mice.
Text: as §2

The nature of series [8]: tissue Se in BALBC mice after 3 months. Conditions: mouse, in vivo; for concentration at 2190 h: tissue Se.
Text: as §1, §2, §3
(§6) After 12 weeks, 6 irradiated and 4 non-irradiated BALB-C mice were sacrificed, and at 39 weeks the remaining BALB-C mice were sacrificed. The liver and skin selenium levels were determined.

Details of series [9]: species or system KH2 (Skh:2) mice. The conditions noted are these: mouse, in vivo.
Text: as §1
as §2, with “Each 100 λ application of the composition penetrated the skin within a period of ten minutes. The composition continued to be applied thirty minutes before each thrice weekly irradiation.” left out
as §5

Series [10] has as its system ultraviolet radiation-induced skin damage. Nature of the series: protection from UV radiation-induced skin damage (inflammation, i.e. sunburn; skin cancers). The format is in vivo. The text has this: (§7) This is illustrated in Table 6, where the pigmentation of selenium supplemented mice is reduced.
The subject of series [11] is UV irradiated Skh:2 mice (skin cancers). Nature of the series: clinically detectable skin tumors in UV irradiated Skh:2 mice. The format is in vivo, female Skh:2 hairless, pigmented mice.
Text: as §1
During the treatment, the BALB-C mice were shaved on the back one per week. 100 λ of a composition according to the invention in the form of an oil-in-water emulsion location containing 0.02% L-selenomethionine was applied three times a week to the backs and ears of the mice for a period of one week prior to beginning irradiation with ultraviolet light. […]
(§8) To evaluate the effectiveness of the selenium supplementation in protecting against skin cancers and the relative merits of the claimed composition, the total number of clinically detectable skin cancers in each group was counted.

In series [12] the test system is pigmentation of Skh:2 mice. In words: Pigmentation of Skh:2 mice after exposure to UV-irradiation. Conditions: for Pigmentation score: +4 = dark pigmentation, 0 = no pigmentation. It is filed as in vivo.
Text: as §1, §2, §3, §7

For series [13], the system named is UV irradiated BALB-C mice (skin cancers). Nature of the series: clinically detectable skin tumors and mortality in UV irradiated and unirradiated BALB-C mice. It is filed as in vivo, BALB-C female mice.
Text: as §1, §2, §3, §8
Tumors greater than 5 mm in size were also considered, but the observed results were inconclusive due to the complicating effect of mortality in irradiated/non-selenium supplemented mice.

A further series can be described thus: in vivo. Also noted: species or system BALBc mice. The conditions noted are these: mouse; for Liver Se / Ventral skin Se / dorsal skin Se: 6552 h.
Text: as §1, §2, §3, §6

For series [14] the following is noted: topical; cited from earlier work.
Series [15] relates to UV-induced skin cancer in hairless mice. Conditions: oral, cited from earlier work.
Where [16] appears, read: unirradiated BALB-C, groups 4-6.

In the case of `C[Se]CC[C@H](N)C(=O)O` [L-selenomethionine], the “liver SeGSHpx” value in [1] (UV +, drinking water, n = 6) was determined as 125.69 ± 14.59 nmoles NADPH/min/mg; in series [1] (UV +, topical, n = 6) it was 124.15 ± 10.51 nmoles NADPH/min/mg; in [1] (UV -, drinking water, n = 4), 141.49 ± 18.71 nmoles NADPH/min/mg; in series [1] (UV -, topical, n = 4) it was 160.18 ± 17.36 nmoles NADPH/min/mg. Also, the SeGSHpx in [1] (UV +, d.water, n = 20) is given as 114.91 ± 12.20 nmoles NADPH/mg-min; in [1] (UV +, topical, n = 13), 85.97 ± 9.92 nmoles NADPH/mg-min; in series [1] (UV -, d.water, n = 4), 57.98 ± 10.82 nmoles NADPH/mg-min; in [1] (UV -, topical, n = 4), 83.30 ± 20.83 nmoles NADPH/mg-min. In addition, the results for the toxicity result in [2] and in series [4] were “without toxicity” and “no evidence of toxicity”, respectively. Further, the SOD with superoxide dismutase (UV +, d.water, n = 20, 1 EU = 50% inhibition of epinephrine oxidation) is 243 ± 67 EU/g; with superoxide dismutase (UV +, topical, n = 13, 1 EU = 50% inhibition of epinephrine oxidation) it was 181 ± 51 EU/g; in the series on superoxide dismutase (UV -, d.water, n = 4, 1 EU = 50% inhibition of epinephrine oxidation), 109 ± 43 EU/g; in the series on superoxide dismutase (UV -, topical, n = 4, 1 EU = 50% inhibition of epinephrine oxidation), 88 ± 34 EU/g. In [3], the “time in which selenium is absorbed into treated human skin” value was “less than fifteen”. For the same compound, the “effect on feeding habits” value in [5] is “little effect on the feeding habits of the mice”. Besides, in [6], the “selenium concentration in the skin in the area of application” value is given as “higher than that attained using a comparable oral dosage of selenium”. Besides, the “selenium levels in the plasma and liver” value in series [6] is “enhanced levels of selenium in the plasma and liver”. Also, the “selenium levels in the skin” value in series [6] was “significantly enhanced levels of selenium in the skin”. In addition, the “selenium levels in untreated skin, serum and liver” value in series [6] is “comparable to those in animal receiving oral doses of selenium”. Moreover, the “time in which the composition penetrated the skin” value in [7] is listed as “ten”. Also, the “selenium levels in the localized part of the skin treated” value in [8] was “preferential increase in selenium levels in the localized part of the skin actually treated”. For the same compound, the “selenium levels in the treated skin” value in series [8] is “substantially enhanced selenium levels in the treated skin”. The “tissue Se, dorsal skin” value in series [8] (po, 2190 h) is recorded as “.578 ± .061 g/g”. For the same compound, the “tissue Se, ventral skin” value in series [8] (po, 2190 h) is “.666 ± .046 g/g”. Besides, the concentration at 2190 h is 913 ± 74 ng/g in series [8] (po, dorsal skin); 1600 ± 186 ng/g in [8] (po, liver); 728 ± 28 ng/g in [8] (po, ventral skin); 4520 ± 568 ng/g in series [8] (topical or ocular, dorsal skin); 2240 ± 353 ng/g in series [8] (topical or ocular, liver); 1860 ± 193 ng/g in series [8] (topical or ocular, ventral skin). Moreover, the “Feed Intake” value in [9] came to 496.5 ± 31.1 g/mouse. Moreover, the “Water Intake” value in [9] worked out at 594.6 ± 43.0 g/mouse. In addition, the “protection against less severe UV radiation-induced damage (inflammation i.e. sunburn and pigmentation)” value in series [10] (topical) is “observed to protect the skin against less severe types of ultraviolet radiation-induced damage such as inflammation i.e. sunburn and pigmentation”. For the same compound, the “incidence of skin cancers following exposure to ultraviolet radiation” value in [10] (topical application) is reported as “significantly reduce the incidence of skin cancers”. Further, the “protection against skin cancers (tumors over 3 mm; animals with tumors)” value in series [11] (irradiated Skh:2, topical and oral, FIGS. 4, 5) is “comparable protection against skin cancers”; in series [13] (irradiated BALB-C, topical and oral, FIGS. 1, 2) it was “comparable protection against skin cancers”. In addition, the “observations based upon 5 mm tumors” value in [11] (irradiated Skh:2, control mortality a complicating factor) is reported as “superior in the selenium-supplemented mice”. Further, the Pigmentation score in series [12] (oral, week 7, no selenium 3.3) was 1.7; in [12] (oral, week 12, no selenium 3.5) it was 2.5; in series [12] (oral, week 16, no selenium 3.6), 2.6; in series [12] (topical, week 7, no selenium 3.3) it was 2.3; in [12] (topical, week 12, no selenium 3.5) it was 2.7; in series [12] (topical, week 16, no selenium 3.6), 2.6. Further, the pigmentation entry in series [12] (selenium supplemented mice, Table 6) is listed as “reduced”. The UV-induced mortality entry in series [13] (irradiated BALB-C, groups 1-3, FIG. 3) is reported as “clear reduction in UV-induced mortality”. In series [13] (irradiated BALB-C, complicated by mortality of non-supplemented mice), the “tumors greater than 5 mm” value is reported as “inconclusive”. Moreover, the “deaths during the test period” value in series [13] (setting [16]) was “none died”. Moreover, the “tumors observed during the experimental period” value in [13] (setting [16]) was “no tumors observed”. In addition, the “Liver Se” value in the series “in vivo” (po) was 1.674 ± .137 ppm; in “in vivo” (topical or ocular), 1.481 ± .156 ppm. For the same compound, the figures for the “Ventral skin Se” value in the series “in vivo” (po) and in “in vivo” (topical or ocular) were “.521 ± .018 ppm” and “.777 ± .069 ppm”, respectively. For the same compound, the “dorsal skin Se” value in the series “in vivo” (po) is on record as “.432 ± .023 ppm”; in “in vivo” (topical or ocular), 2.255 ± .582 ppm. For the same compound, the concentration at 6552 h in “in vivo” (po, Liver Se) was determined as 1560 ± 84 ng/g; in the series “in vivo” (po, Ventral skin Se), 508 ± 26 ng/g; in the series “in vivo” (po, dorsal skin Se), 562 ± 40 ng/g; in the series “in vivo” (topical or ocular, Liver Se), 1420 ± 150 ng/g; in “in vivo” (topical or ocular, Ventral skin Se) it was 843 ± 76 ng/g; in “in vivo” (topical or ocular, dorsal skin Se), 2010 ± 190 ng/g.

For the compound `S=[Se]=S` [Selenium sulfide, selenium sulfide], the “skin penetration / selenium levels in the serum or liver” value in series [14] is “does not penetrate the skin to give increased levels of selenium in the serum or liver”.

Turning to `O=[Se](O)O` [sodium selenite], in series [15] (decreased weight gain relative to controls), the animal growth rate entry is “moderate inhibition of animal growth rate”. Also, in series [15], the “protection against UV-induced skin cancer” value is “dose-dependent selenium protection against UV-induced skin cancer”; the “resistance to acute and sub-acute effects of UV radiation (inflammation and pigmentation)” value is “more resistant to the acute and sub-acute effects of UV radiation”.
